Measured values reported in patent US7381824B2 (Agouron Pharmaceuticals, Inc., priority 2003, dated 2008).
Read-outs that look alike come from different tables or passages of the source.

Tests used:
[1] = target: T1, human vascular endothelial growth factor receptor 2 (VEGF-R2) (Homo sapiens, UniProt P35968, DEL940-989/E990V); experiment: VEGF-R2 coupled spectrophotometric assay (FLVK, unphosphorylated VEGF-R2D50); assay type: biochemical
T1 construct: VEGF-R2D50 contains residues 806-939 and 990-1171; made in house; host or cells: baculovirus/insect cell system
T1 sequence (P35968 with tags, fused parts or gaps DEL940-989/E990V limits assumed): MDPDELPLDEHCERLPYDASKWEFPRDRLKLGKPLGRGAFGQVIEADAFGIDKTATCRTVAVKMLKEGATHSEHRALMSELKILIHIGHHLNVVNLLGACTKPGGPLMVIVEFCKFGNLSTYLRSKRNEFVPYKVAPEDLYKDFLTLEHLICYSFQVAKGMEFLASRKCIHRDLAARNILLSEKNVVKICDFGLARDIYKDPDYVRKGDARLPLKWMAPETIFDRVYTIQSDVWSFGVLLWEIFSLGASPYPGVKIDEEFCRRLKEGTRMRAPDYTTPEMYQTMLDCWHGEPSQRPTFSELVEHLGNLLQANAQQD
From the text: This construct determines the ability of a test compound to inhibit tyrosine kinase activity. A construct (VEGF-R2D50) of the cytosolic domain of human vascular endothelial growth factor receptor 2 (VEGF-R2) lacking the 50 central residues of the 68 residues of the kinase insert domain was expressed in a baculovirus/insect cell system. Of the 1356 residues of full-length VEGF-R2, VEGF-R2D50 contains residues 806-939 and 990-1171, and also one point mutation (E990V) within the kinase insert domain relative to wild-type VEGF-R2. Autophosphorylation of the purified construct was performed by incubation of the enzyme at a concentration of […] in the presence of 3 mM ATP and 40 mM MgCl2 in 100 mM HEPES, pH 7.5, containing 5% glycerol and 5 mM DTT, at 4° C. for 2 h. […] See Parast et al., Biochemistry, 37, 16788-16801 (1998).
VEGF-R2 Assay: Coupled Spectrophotometric (FLVK-P) Assay
The production of ADP from ATP that accompanies phosphoryl transfer was coupled to oxidation of NADH using phosphoenolpyruvate (PEP) and a system having pyruvate kinase (PK) and lactic dehydrogenase (LDH). The oxidation of NADH was monitored by following the decrease of absorbance at 340 nm (e340=6.22 cm^−1 mM^−1) using a Beckman DU 650 spectrophotometer. Assay conditions for phosphorylated VEGF-R2D50 (indicated as FLVK-P in the tables below) were the following: 1 mM PEP; […] NADH; 50 units of LDH/mL; 20 units of PK/mL; 5 mM DTT; 5.1 mM poly(E4Y1); 1 mM ATP; and 25 mM MgCl2 in 200 mM HEPES, pH 7.5. Assay conditions for unphosphorylated VEGF-R2D50 (indicated as FLVK in the tables) were the following: 1 mM PEP; […] NADH; 50 units of LDH/mL; 20 units of PK/mL; 5 mM DTT; 20 mM poly(E4Y1); 3 mM ATP; and 60 mM MgCl2 and 2 mM MnCl2 in 200 mM HEPES, pH 7.5. Assays were initiated with 5 to 40 nM of enzyme. K1 values were determined by measuring enzyme activity in the presence of varying concentrations of test compounds. The percent inhibition at 50 nM (% inhibition @ 50 nM) was determined by linear least-squares regression analysis of absorbance as a function of time. The binding inhibitions were fitted to equation as described by Morrison. The data were analyzed using Enzyme Kinetic and Kaleidagraph software.

[2] = tested on: human umbilical vein endothelial cells (HUVEC); experiment: HUVEC+VEGF proliferation assay; assay type: cell-based; details: VEGF-stimulated HUVEC proliferation, MTT, 72 hours
Procedure: HUVEC+VEGF Proliferation Assay
This assay determines the ability of a test compound to inhibit the growth factor-stimulated proliferation of human umbilical vein endothelial cells (“HUVEC”). HUVEC cells (passage 3-4, Clonetics, Corp.) were thawed into EGM2 culture medium (Clonetics Corp) in T75 flasks. Fresh EGM2 medium was added to the flasks 24 hours later. Four or five days later, cells were exposed to another culture medium (F12K medium supplemented with 10% fetal bovine serum (FBS), […] endothelial cell growth supplement (ECGS), and 0.1 mg/mL heparin). Exponentially-growing HUVEC cells were used in experiments thereafter. Ten to twelve thousand HUVEC cells were plated in 96-well dishes in […] of rich, culture medium (described above). The cells were allowed to attach for 24 hours in this medium. The medium was then removed by aspiration and […] of starvation media (F12K+1% FBS) was added to each well. After 24 hours, […] of test agent dissolved in 1% DMSO in starvation medium or this vehicle alone was added into each treatment well; the final DMSO concentration was 0.1%. One hour later, […] of VEGF (30 ng/mL) in starvation media was added to all wells except those containing untreated controls; the final VEGF concentration was 6 ng/mL. Cellular proliferation was quantified 72 hours later by MTT dye reduction, at which time cells were exposed for 4 hours MTT (Promega Corp.). Dye reduction was stopped by addition of a stop solution (Promega Corp.) and absorbance at 595 nm was determined on a 96-well spectrophotometer plate reader.

human FGF-R1 = target: T2, human FGF-R1 (Homo sapiens, UniProt P11362, C488A/C584S/L457V); experiment: FGF-R spectrophotometric assay; assay type: biochemical
T2 construct: starting from the endogenous methionine residue 456 to glutamate 766; made in house; host or cells: baculovirus vector expression system
T2 sequence (P11362 456-766 L457V/C488A/C584S): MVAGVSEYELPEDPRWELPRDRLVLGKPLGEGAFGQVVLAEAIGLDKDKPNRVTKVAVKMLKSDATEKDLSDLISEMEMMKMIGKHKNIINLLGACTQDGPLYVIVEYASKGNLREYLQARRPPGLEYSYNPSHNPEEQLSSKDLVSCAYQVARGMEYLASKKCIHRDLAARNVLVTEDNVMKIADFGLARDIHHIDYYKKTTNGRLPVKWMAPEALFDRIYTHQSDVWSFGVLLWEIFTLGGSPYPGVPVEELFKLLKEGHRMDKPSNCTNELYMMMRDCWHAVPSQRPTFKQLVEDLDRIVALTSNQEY
Procedure: The intracellular kinase domain of human FGF-R1 was expressed using the baculovirus vector expression system starting from the endogenous methionine residue 456 to glutamate 766, according to the residue numbering system of Mohammadi et al., Mol. Cell. Biol., 16, 977-989 (1996). In addition, the construct also has the following 3 amino acid substitutions: L457V, C488A, and C584S.
The spectrophotometric assay was carried out as described above for VEGF-R2, except for the following changes in concentration: FGF-R=50 nM, ATP=2 mM, and poly(E4Y1)=15 mM.

[3] = unphosphorylated VEGF-R2D50 (FLVK)

SMILES	Ki [1, 3] [nM]	IC50 ([2]; Homo sapiens) [nM]	other results
CNC(=O)c1c(C)sc2cc(Oc3ccnc4cc(-c5ccccn5)ccc34)ccc12 [Example 31]	1 to 10		IC50 [2]: < 1 nM
CNC(=O)c1c(C)oc2cc(Oc3ccnc4cc(OCCN5CCOCC5)ccc34)ccc12 [Example 36, N,2-dimethyl-6-{[7-(2-morpholin-4-ylethoxy)quinolin-4-yl]oxy)-1-benzofuran-3-carboxamide]	1 to 10	< 1	
CNC(=O)c1c(C)oc2cc(Oc3ccnc4cc(OCCN(C)C)ccc34)ccc12 [Example 37, 6-({7-[2-(dimethylamino)ethoxy]quinolin-4-yl}oxy)-N,2-dimethyl-1-benzofuran-3-carboxamide]	1 to 10	< 1	
CNC(=O)c1c(C)oc2cc(Oc3ccnc4cc(OCCN5CCCCC5)ccc34)ccc12 [Example 38, N,2-dimethyl-6-{[7-(2-piperidin-1-ylethoxy)quinolin-4-yl]oxy}-1-benzofuran-3-carboxamide]	1 to 10	< 1	
CCCCNC(=O)c1c(C)oc2cc(Oc3ccnc4cc(OCCN5CCCC5)ccc34)ccc12 [Example 44, N-butyl-2-methyl-6-{[7-(2-pyrrolidin-1-ylethoxy)quinolin-4-yl]oxy}-1-benzofuran-3-carboxamide]	1 to 10	< 1	
CCCCNC(=O)c1c(C)oc2cc(Oc3ccnc4cc(OCCN5CCOCC5)ccc34)ccc12 [Example 45, N-butyl-2-methyl-6-{[7-(2-morpholin-4-ylethoxy)quinolin-4-yl]oxy}-1-benzofuran-3-carboxamide]	1 to 10	1 to 10	
CCCCNC(=O)c1c(C)oc2cc(Oc3ccnc4cc(OCCN(C)C)ccc34)ccc12 [Example 46, N-butyl-6-({7-[2-(dimethylamino)ethoxy]quinolin-4-yl}oxy)-2-methyl-1-benzofuran-3-carboxamide]	1 to 10	< 1	
CCCCNC(=O)c1c(C)oc2cc(Oc3ccnc4cc(OCCN5CCCCC5)ccc34)ccc12 [Example 47, N-butyl-2-methyl-6-{[7-(2-piperidin-1-ylethoxy)quinolin-4-yl]oxy}-1-benzofuran-3-carboxamide]	1 to 10	< 1	
COc1ccc2c(Oc3ccc4c(C(=O)NC5CC5)c(C)sc4c3)ccnc2c1 [Example 48, N-cyclopropyl-6-[(7-methoxyquinolin-4-yl)oxy]-2-methyl-1-benzothiophene-3-carboxamide]	1 to 10	1 to 10	
CCCNC(=O)c1c(C)sc2cc(Oc3ccnc4cc(OC)ccc34)ccc12 [Example 50, [(7-methoxyquinolin-4-yl)oxy]-2-methyl-N-propyl-1-benzothiophene-3-carboxamide]	1 to 10	1 to 10	
COc1ccc2c(Oc3ccc4c(C(=O)NCCCN(C)C)c(C)sc4c3)ccnc2c1 [Example 51, N-[3-(dimethylamino)propyl]-6-[(7-methoxyquinolin-4-yl)oxy]-2-methyl-1-benzothiophene-3-carboxamide]	> 10	1 to 10	
COc1ccc2c(Oc3ccc4c(C(=O)NC5CCCCC5)c(C)sc4c3)ccnc2c1 [Example 52, N-cyclohexyl-6-[(7-methoxyquinolin-4-yl)oxy]-2-methyl-1-benzothiophene-3-carboxamide]	1 to 10	1 to 10	
COc1ccc2c(Oc3ccc4c(C(=O)NC5CCCC5)c(C)sc4c3)ccnc2c1 [Example 53, N-cyclopentyl-6-[(7-methoxyquinolin-4-yl)oxy]-2-methyl-1-benzothiophene-3-carboxamide]	1 to 10	1 to 10	
COc1ccc2c(Oc3ccc4c(C(=O)NCc5ccccn5)c(C)oc4c3)ccnc2c1 [Example 66, 6-[(7-methoxyquinolin-4-yl)oxy]-2-methyl-N-(pyridin-2-ylmethyl)-1-benzofuran-3-carboxamide]	> 10	1 to 10	
COc1ccc2c(Oc3ccc4c(C(=O)NCCCO)c(C)oc4c3)ccnc2c1 [Example 67, N-(3-hydroxypropyl)-6-[(7-methoxyquinolin-4-yl)oxy]-2-methyl-1-benzofuran-3-carboxamide]	1 to 10	1 to 10	
Cc1oc2cc(Oc3ccnc4cc(OC(F)(F)F)ccc34)ccc2c1C(=O)NC1CC1 [Example 73, N-cyclopropyl-2-methyl-6-{[7-(trifluoromethoxy)quinolin-4-yl]oxy}-1-benzofuran-3-carboxamide]	1 to 10	1 to 10	
COc1ccc2c(Oc3ccc4c(C(=O)NC[C@H]5CCCO5)c(C)oc4c3)ccnc2c1 [Example 84, 6-[(7-methoxyquinolin-4-yl)oxy]-2-methyl-N-[(2R)tetrahydrofuran-2-ylmethyl]-1-benzofuran-3-carboxamide]	1 to 10	1 to 10	
CCOCCNC(=O)c1c(C)oc2cc(Oc3ccnc4cc(OC)ccc34)ccc12 [Example 86, 6-[(7-methoxyquinolin-4-yl)oxy]-2-methyl-N-[ethoxy-ethyl]-1-benzofuran-3-carboxamide]	1 to 10	1 to 10	
COCCNC(=O)c1c(C)oc2cc(Oc3ccnc4cc(OC)ccc34)ccc12 [Example 88, N-(2-methoxyethyl)-6-[(7-methoxyquinolin-4-yl)oxy]-2-methyl-1-benzofuran-3-carboxamide]	1 to 10	1 to 10	
COc1ccc2c(Oc3ccc4cc(C)oc4c3)ccnc2c1 [Example 125, 7-Methoxy-4-(2-methyl-benzofuran-6-yloxy)-quinoline]			inhibition at 1 µM [1]: 68%; inhibition at 1 µM (human FGF-R1): 32%
Cc1cc2ccc(Oc3ccnc4cc(OCCN5CCOCC5)ccc34)cc2o1 [Example 126, 4-(2-Methyl-benzofuran-6-yloxy)-7-(2-morpholin-4-yl-ethoxy)-quinoline]	> 10		Ki [1]: 32 nM; inhibition at 1 µM (human FGF-R1): 38%
